Data published in patent US11230535B2, “CFTR regulators and methods of use thereof” (THE REGENTS OF THE UNIVERSITY OF CALIFORNIA, priority 2015, dated 2022).
Entries after “also recorded” stand apart in the source; their conditions may differ.

How the values were obtained:
[1] = system: isolated mouse ileum and colon strips; test: Ex vivo contractility of isolated ileum and colon strips; details: alone or with 10 μM loperamide
Experimental: Whole-gut transit time was determined using an orally administered marker (200 μL, 5% Evans Blue, 5% gum Arabic) and measuring the time of its appearance in stool. Mice were administered loperamide and CFTRact-J027 (10 mg/kg) or vehicle intraperitoneally at zero time. For ex vivo contractility measurements, mice were euthanized by avertin overdose (200 mg/kg, 2,2,2-tribromethanol, Sigma-Aldrich) and ileum and colon segments of ˜2 cm length were isolated and washed with Krebs-Henseleit buffer. The ends of the intestinal segments were tied, connected to a force transducer (Biopac Systems, Goleta, Calif., USA) and tissues were transferred to an organ chamber (Biopac Systems) containing Krebs-Henseleit buffer at 37° C. aerated with 95% O2, 5% CO2. Ileum and colon were stabilized for 60 min with resting tensions of 0.5 and 0.2 g respectively, and solutions were changed every 15 min. Effects of CFTRact-J027 on baseline and loperamide-suppressed isometric intestinal contractions were recorded.
In vivo intestinal transit and ex vivo intestinal contractility. Whole-gut transit time was determined using an orally administered marker (200 μL, 5% Evans Blue, 5% gum Arabic) and measuring the time of its appearance in stool. […] Effects of CFTRact-J027 on baseline and loperamide-suppressed isometric intestinal contractions were recorded.

[2] = system: loperamide-treated mice; test: Loperamide-induced mouse model of constipation (3-h stool weight, pellet number, water content)

## Nc1ccc([N+](=O)[O-])cc1-c1nc2ccccc2n(Cc2ccccc2)c1=O [CFTRact-J027, 3-(2-amino-5-nitrophenyl)-1-benzylquinoxalin-2(1H)-one]
[1]
  intestinal contraction: no effect
[2]; 10 mg/kg ip, loperamide-treated mice
  stool weight, pellet number, water content: normalized each of the stool parameters
[2]; 10 mg/kg oral daily for 7 days, loperamide 1 h after final dose
  efficacy after chronic administration: remained effective in normalizing stool output and water content
[2]; CF mice lacking functional CFTR
  effect on stool parameters in cystic fibrosis mice: without effect
[2]; ip, non-loperamide-treated mice
  stool output or water content in control mice: did not affect stool output or water content
[2]; oral 10 mg/kg, control mice
  stool output, oral, control mice: no effect
[2]; oral (10 mg/kg) 1 h before loperamide, 10 mg/kg
  stool output and water content, oral administration: normalized stool output and water content; also recorded: effective in normalizing stool output and water content
[2]; oral, loperamide model
  ED50, oral administration: 0.5 mg/kg
